Measurements: the CheMixHub viscosity set

Assay: xn = mol fraction of the nth substance listed

CCCCCCCCCCCCCC + COC(=O)c1ccccc1
101 kPa
Settings | viscosity [mPa·s]
298.15 K, x1 = 0.0359 | 1.787
298.15 K, x1 = 0.0603 | 1.763
298.15 K, x1 = 0.0869 | 1.742
298.15 K, x1 = 0.114 | 1.723
298.15 K, x1 = 0.1429 | 1.706
298.15 K, x1 = 0.1751 | 1.695
298.15 K, x1 = 0.2075 | 1.686
298.15 K, x1 = 0.2786 | 1.675
298.15 K, x1 = 0.3166 | 1.672
298.15 K, x1 = 0.3592 | 1.673
298.15 K, x1 = 0.4082 | 1.68
298.15 K, x1 = 0.4539 | 1.688
298.15 K, x1 = 0.5114 | 1.7
298.15 K, x1 = 0.5687 | 1.718
298.15 K, x1 = 0.6228 | 1.743
298.15 K, x1 = 0.6938 | 1.782
298.15 K, x1 = 0.7735 | 1.842
298.15 K, x1 = 0.8501 | 1.905
308.15 K, x1 = 0.0334 | 1.486
308.15 K, x1 = 0.0663 | 1.471
308.15 K, x1 = 0.0869 | 1.464
308.15 K, x1 = 0.1156 | 1.452
308.15 K, x1 = 0.1423 | 1.444
308.15 K, x1 = 0.1737 | 1.436
308.15 K, x1 = 0.2082 | 1.428
308.15 K, x1 = 0.2405 | 1.422
308.15 K, x1 = 0.2806 | 1.418
308.15 K, x1 = 0.3218 | 1.415
308.15 K, x1 = 0.3558 | 1.415
308.15 K, x1 = 0.4082 | 1.42
308.15 K, x1 = 0.4482 | 1.426
308.15 K, x1 = 0.5073 | 1.438
308.15 K, x1 = 0.5627 | 1.455
308.15 K, x1 = 0.62 | 1.478
308.15 K, x1 = 0.6846 | 1.508
308.15 K, x1 = 0.7661 | 1.553
308.15 K, x1 = 0.8624 | 1.613
318.15 K, x1 = 0.0194 | 1.263
318.15 K, x1 = 0.0462 | 1.25
318.15 K, x1 = 0.071 | 1.242
318.15 K, x1 = 0.1011 | 1.231
318.15 K, x1 = 0.1287 | 1.223
318.15 K, x1 = 0.1619 | 1.213
318.15 K, x1 = 0.193 | 1.205
318.15 K, x1 = 0.2311 | 1.198
318.15 K, x1 = 0.267 | 1.193
318.15 K, x1 = 0.3111 | 1.189
318.15 K, x1 = 0.3471 | 1.186
318.15 K, x1 = 0.3979 | 1.187
318.15 K, x1 = 0.4448 | 1.189
318.15 K, x1 = 0.5017 | 1.196
318.15 K, x1 = 0.5526 | 1.206
318.15 K, x1 = 0.6171 | 1.222
318.15 K, x1 = 0.6828 | 1.244
318.15 K, x1 = 0.7602 | 1.276
318.15 K, x1 = 0.8353 | 1.314

CC12CC3CC(C)(C1)CC(C)(C3)C2 + CCCCCCCCO
viscosity [mPa·s], 100 kPa
Settings | x1 = 0.1004 | x1 = 0.2017 | x1 = 0.3008 | x1 = 0.3998 | x1 = 0.5015 | x1 = 0.5993 | x1 = 0.7 | x1 = 0.7997 | x1 = 0.9005
293.15 K | 7.78 | 6.71 | 5.79 | 5 | 4.3 | 3.75 | 3.3 | 2.98 | 2.76
298.15 K | 6.54 | 5.65 | 4.9 | 4.25 | 3.71 | 3.28 | 2.93 | 2.66 | 2.47
303.15 K | 5.53 | 4.81 | 4.2 | 3.68 | 3.24 | 2.88 | 2.59 | 2.37 | 2.21
308.15 K | 4.72 | 4.14 | 3.64 | 3.22 | 2.85 | 2.55 | 2.31 | 2.13 | 2
313.15 K | 4.03 | 3.57 | 3.18 | 2.83 | 2.53 | 2.28 | 2.08 | 1.93 | 1.82
318.15 K | 3.49 | 3.12 | 2.79 | 2.5 | 2.24 | 2.03 | 1.86 | 1.73 | 1.65
323.15 K | 3.03 | 2.72 | 2.45 | 2.22 | 2 | 1.83 | 1.69 | 1.58 | 1.51

O=[N+]([O-])c1ccccc1 + CCC(C)O
viscosity [mPa·s], 100 kPa
Settings | x1 = 0.081 | x1 = 0.16 | x1 = 0.24 | x1 = 0.35 | x1 = 0.4949 | x1 = 0.56 | x1 = 0.65 | x1 = 0.74 | x1 = 0.8205 | x1 = 0.9399
293.15 K | 3.138 | 2.694 | 2.349 | 2.041 | 1.854 | 1.838 | 1.859 | 1.915 | 1.975 | 2.078
298.15 K | 2.591 | 2.246 | 1.983 | 1.74 | 1.619 | 1.612 | 1.647 | 1.719 | 1.78 | 1.861
303.15 K | 2.232 | 1.989 | 1.801 | 1.632 | 1.528 | 1.521 | 1.539 | 1.58 | 1.638 | 1.708
308.15 K | 1.905 | 1.731 | 1.598 | 1.476 | 1.408 | 1.405 | 1.422 | 1.459 | 1.498 | 1.577
313.15 K | 1.627 | 1.489 | 1.384 | 1.289 | 1.248 | 1.252 | 1.275 | 1.32 | 1.379 | 1.457
318.15 K | 1.411 | 1.309 | 1.233 | 1.169 | 1.147 | 1.155 | 1.18 | 1.224 | 1.274 | 1.351
323.15 K | 1.233 | 1.159 | 1.104 | 1.058 | 1.044 | 1.055 | 1.081 | 1.122 | 1.168 | 1.253

ClC(Cl)=C(Cl)Cl + CCCCOCCO
viscosity [mPa·s], 101.33 kPa
Settings | x1 = 0.1139 | x1 = 0.2084 | x1 = 0.3166 | x1 = 0.4172 | x1 = 0.5191 | x1 = 0.6215 | x1 = 0.7098 | x1 = 0.8124 | x1 = 0.9087
303.15 K | 2.167 | 1.954 | 1.716 | 1.51 | 1.327 | 1.17 | 1.049 | 0.939 | 0.854
313.15 K | 1.689 | 1.543 | 1.381 | 1.24 | 1.113 | 0.998 | 0.913 | 0.831 | 0.771
